Here are results for two molecules from patent US10052336B2, “Pulmonary interstitial pneumonia treatment” (priority 2012, dated 2018).

Structures are written as SMILES.

Assay [1] has as its system non-specific interstitial pneumonitis (NSIP). In words: Inventor's own treatment course for non-specific interstitial pneumonitis, tracked by CRP level and symptoms. The class given is in vivo, human. Particulars: tapered-down doses of prednisone from 30-40 mg/day. Here is the method: NSIP is a sub-type of Idiopathic Pulmonary Fibrosis (IPF), comprising a group of interstitial pneumonias. […] Following the NSIP diagnosis, my tapered prednisone treatments were supplemented with 100 mg/day azathioprine and, subsequently, with 1800 mg/day N-Acetyl Cysteine (NAC).

In assay [2] the test system is idiopathic pulmonary fibrosis. The note with it: as compared with placebo; Martinez F. J. et al., N Engl J Med 2014; cited from earlier work.

On to `C[C@]12C=CC(=O)C=C1CC[C@@H]1[C@@H]2C(=O)C[C@@]2(C)[C@H]1CC[C@]2(O)C(=O)CO` [prednisone], for which, in assay [1], the “symptoms (dry cough, dyspnea, fever)” value was “continued symptoms to worsen”. Moreover, the “systemic inflammation as measured by CRP level” value in assay [1] (eventually approaching and exceeding levels in the teens of mg/l) is on record as “continued to worsen”.
In the case of `CC(=O)N[C@@H](CS)C(=O)O` [acetylcysteine, N-Acetyl Cysteine], in assay [2], the “preservation of FVC [i.e., lung capacity]” value is “no significant benefit”.
